Data taken from patent US20230142274A1 (SIMCERE PHARMACEUTICAL CO., LTD., priority 2020, published 2023).
Like-named read-outs stand apart in the source and are kept apart here.

Test system: Daudi cells
Test: Inhibition of human Daudi lymphoma cell proliferation (Cell-Titer Glo)
Format: cell-based
Details: 3 days incubation, read-out: Anti-Proliferative Activity Against Daudi cells IC50
Description: Introduction of the experimental principle: After the RAD51 inhibitor to be tested was co-incubated with cancer cells for a period of time, the influence of the test compound on cell proliferation was measured by a method for counting cell proliferation based on the quantitative measurement of intracellular ATP content.
Materials and Cells: Daudi cells were purchased from ATCC; fetal bovine serum, 1640 medium and penicillin-streptomycin were purchased from Gibco Inc. (U.S.), 96-well plates were purchased from Corning Inc. (U.S.), and Cell-Titer Glo reagent was purchased from Promega Corporation (U.S.).
Cell culture: Daudi cells were cultured in 1640 culture medium containing 10% fetal bovine serum and 1% penicillin-streptomycin at 37° C. in an atmosphere containing 5% CO2. Cells in logarithmic growth phase could be used for experiments.
Assay of cell proliferation and viability: Cell-Titer Glo reagent was used to measure the inhibitory activities of the compounds on the proliferation of Daudi cell strain. The concentration of cells was adjusted, and the cells were seeded in a 96-well plate and cultured at 37° C. in an atmosphere containing 5% CO2 for 24 hours. The powder of the compound was dissolved in 100% DMSO to form a 10 mM solution. 10 μl of the solution of the compound was aspirated and transferred into a 96-well compound plate containing 20 μl of DMSO solution for 3-fold dilution and was then formulated into 10 serial dilutions. Thereafter, 2 μl of the solution of the compound was aspirated from the corresponding well and added correspondingly into a 96-well intermediate compound dilution plate containing 78 μl of complete culture medium in each well. The resultant was mixed well, and the plate was centrifuged at 1000 rpm for 1 minute. Finally, 10 μl of the solution of the compound was aspirated from the corresponding well of the 96-well intermediate compound dilution plate, and transferred into the corresponding well of the cell culture plate containing 90 μl of complete culture medium. The final concentration of DMSO was 0.25%. After the addition of the compound, the cells were continued to be incubated for 3 days at 37° C. in an atmosphere containing 5% CO2. Cell-Titer Glo reagent was added to measure cell viability.
% Compound inhibition was calculated and IC50 of the compound was filled;
% Compound inhibition=1−100%×(Signal−Bottom)/(Top−Bottom)

IC50 (Homo sapiens, 72 h)	IC50	SMILES
16 nM		COc1ccc(Nc2ccc(-c3cnc([C@H]4CC[C@H](NC(=O)OC(C)C)CC4)s3)c(S(=O)(=O)C3COC3)c2)cn1 [Example 113, isopropyl trans-N-[4-[5-[4-[(6-methoxy-3-pyridyl)amino]-2-(oxetan-3-ylsulfonyl)phenyl]thiazol-2-yl]cyclohexyl]carbamate]
4 nM		Cc1ccc(Nc2ccc(-c3cnc(C4CCC(NC(=O)OC(C)C)CC4)s3)c(S(=O)(=O)C3CC3)c2)nc1 (stereo not drawn) [Example 77, isopropyl trans-(4-(5-(2-(cyclopropylsulfonyl)-4-((5-methylpyridin-2-ylamino)phenyl)thiazol-2-yl)cyclohexyl)carbamate]
290 nM		CN=S(=O)(c1cc(Nc2cc(C)[nH]n2)ccc1-c1cnc([C@H]2CC[C@H](NC(=O)OC(C)C)CC2)s1)C1CC1 (stereo partly drawn) [Example 97, isopropyl trans-(4-(5-(4-((5-methyl-1H-pyrazol-3-yl)amino)-2-(N-methylcyclopropanesulfonimidoyl)phenyl)thiazol-2-yl)cyclohexyl)carbamate]
200 nM		CC(C)OC(=O)N[C@H]1CC[C@H](c2ncc(-c3ccc(N4CCCO4)cc3S(=O)(=O)C3CC3)s2)CC1 [Example 73, isopropyl trans-N-[4-[5-(2-cyclopropylsulfonyl-4-isoxazolidin-2-yl-phenyl)thiazol-2-yl]cyclohexyl]carbamate]
18 nM		CC(C)OC(=O)N[C@H]1CC[C@H](c2ncc(-c3ccc(Nc4ccccn4)cc3S(=O)(=O)C3CC3)s2)CC1 [Example 66, isopropyl trans-N-[4-[5-[2-cyclopropylsulfonyl-4-(2-pyridylamino)phenyl]thiazol-2-yl]cyclohexyl]carbamate]
700 nM		CCNC(=O)c1ccc(-c2cnc([C@H]3CC[C@H](NC(=O)OC(C)C)CC3)s2)c(S(=O)(=O)C2CC2)c1 [Example 111, isopropyl trans-(4-(5-(2-(cyclopropylsulfonyl)-4-(ethylcarbamoyl)phenyl)thiazol-2-yl)cyclohexyl)carbamate]
8800 nM		Cc1cc(Nc2ccc(-c3cnc([C@H]4CC[C@H](NC(=O)OC(C)C)CC4)[nH]3)c(S(=O)(=O)C3CC3)c2)n[nH]1 [Example 90]
680 nM		CC(C)OC(=O)N[C@H]1CC[C@H](c2ncc(-c3ccc(Nc4nnco4)cc3S(=N)(=O)C3CC3)s2)CC1 (stereo partly drawn) [Example 100, isopropyl trans-(4-(5-(4-((1,3,4-oxadiazol-2-yl)amino)-2-(cyclopropanesulfonimidoyl)phenyl)thiazol-2-yl)cyclohexyl)carbamate]
	9720 nM	CC(C)OC(=O)Nc1ccc(-c2cnc(N3CC4C(C3)C4NC(=O)OC(C)C)s2)c(S(=O)(=O)NC(C)(C)C)c1 (stereo not drawn) [Example 10, isopropyl exo-N-[3-(tert-butylsulfamoyl)-4-[2-[6-(isopropoxycarbonylamino)-3-azabicyclo[3.1.0]hex-3-yl]thiazol-5-yl]phenyl]carbamate]
40 nM		CC(C)OC(=O)N[C@H]1CC[C@H](c2ncc(-c3ccc(Nc4cnn(CCF)c4)cc3S(=N)(=O)C3COC3)s2)CC1 (stereo partly drawn) [Example 106, isopropyl trans-N-[4-[5-[4-[[1-(2-fluoroethyl)pyrazol-4-yl]amino]-2-(oxetan-3-ylsulfonimidoyl)phenyl]thiazol-2-yl]cyclohexyl]carbamate]
680 nM		CC(C)OC(=O)Nc1ccc(-c2cnc([C@H]3CC[C@H](NC(=O)OC(C)C)CC3)s2)c(P2(=O)CCCC2)c1 [Example 27, isopropyl trans-N-[4-[2-[4-(isopropoxycarbonylamino)cyclohexyl]thiazol-5-yl]-3-(1-oxophospholan-1-yl)phenyl]carbamate]
4290 nM		CC(C)OC(=O)N[C@H]1CC[C@H](c2ncc(-c3ccc(Nc4ccc[nH]c4=O)cc3S(=O)(=O)C(C)C)s2)CC1 [Example 35, isopropyl trans-N-[4-[5-[2-isopropylsulfonyl-4-[(2-oxo-1H-pyridin-3-yl)amino]phenyl]thiazol-2-yl]cyclohexyl]carbamate]
150 nM		Cc1cc(Nc2ccc(-c3cnc([C@H]4CC[C@H](NC(=O)OC(C)C)CC4)s3)c(S(=O)(=O)C(C)C)c2)sn1 [Example 38]
680 nM		CC(C)OC(=O)N[C@H]1CC[C@H](c2ncc(-c3ccc(Nc4cccnn4)cc3S(=O)(=O)C(C)C)s2)CC1 [Example 44, isopropyl trans-N-[4-[5-[2-isopropylsulfonyl-4-(pyridazin-3-ylamino)phenyl]thiazol-2-yl]cyclohexyl]carbamate]
390 nM		CC(C)OC(=O)N[C@H]1CC[C@H](c2ncc(-c3ccc(Nc4cc(C(F)(F)F)[nH]n4)cc3S(=O)(=O)C(C)C)s2)CC1 [Example 46]
70 nM		CC(C)OC(=O)N[C@H]1CC[C@H](c2ncc(-c3ccc(Nc4cc(C5CC5)[nH]n4)cc3S(=N)(=O)C3CC3)s2)CC1 (stereo partly drawn) [Example 63, isopropyl trans-N-[4-[5-[4-[(5-cyclopropyl-1H-pyrazol-3-yl)amino]-2-(cyclopropylsulfonimidoyl)phenyl]thiazol-2-yl]cyclohexyl]carbamate]
1500 nM		Cc1cc(Nc2ccc(-c3ncc([C@H]4CC[C@H](NC(=O)OC(C)C)CC4)s3)c(S(=O)(=O)C3CC3)c2)n[nH]1 [Example 91, isopropyl trans-(4-(2-(2-(cyclopropylsulfonyl)-4-((5-methyl-1H-pyrazol-3-yl)amino)phenyl)thiazol-5-yl)cyclohexyl)carbamate]
127 nM		Cc1cc(Nc2ccc(-c3ccc([C@H]4CC[C@@H](NC(=O)OC(C)C)CC4)s3)c(S(=O)(=O)C3CC3)c2)n[nH]1 [Example 89-1, isopropyl cis-(4-(5-(2-(cyclopropylsulfonyl)-4-((5-methyl-1H-pyrazol-3-yl)amino)phenyl)thiophen-2-yl)cyclohexyl)carbamate]
22 nM		CC(C)OC(=O)NC1CCC(c2ncc(-c3ccc(Nc4ccc(F)cn4)cc3S(=O)(=O)C3CC3)s2)CC1 (stereo not drawn) [Example 75, isopropyl trans-N-[4-[5-[2-cyclopropylsulfonyl]-4-[(5-fluoro-2-pyridyl)amino]phenyl]thiazol-2-yl]cyclohexyl]carbamate]
76 nM		Cc1cc(Nc2ccc(-c3cnc(N4CC5C(C4)C5NC(=O)OC(C)C)s3)c(S(=O)(=O)C3CC3)c2)n[nH]1 (stereo not shown) [Example 109, isopropyl (3-(5-(2-(cyclopropylsulfonyl)-4-((5-methyl-1H-pyrazol-3-yl)amino)phenyl)thiazol-2-yl)-3-azabicyclo[3.1.0]hexanone-6-yl)carbamate]
140 nM		CC(C)OC(=O)N[C@H]1CC[C@H](c2ncc(-c3ccc(Nc4ccc(=O)[nH]c4)cc3S(=O)(=O)C3CC3)s2)CC1 [Example 96, isopropyl trans-(4-(5-(2-(cyclopropylsulfonyl)-4-((6-oxo-1,6-dihydropyridin-3-yl)amino)phenyl)thiazol-2-yl)cyclohexyl)carbamate]
7 nM		Cc1cc(Nc2ccc(-c3ccc([C@H]4CC[C@H](NC(=O)OC(C)C)CC4)s3)c(S(=O)(=O)C3CC3)c2)n[nH]1 [Example 89, isopropyl trans-(4-(5-(2-(cyclopropylsulfonyl)-4-((5-methyl-1H-pyrazol-3-yl)amino)phenyl)thiophen-2-yl)cyclohexyl)carbamate]
27 nM		CC(C)OC(=O)NC12CCC(c3ncc(-c4ccc(Nc5cn(C)nn5)cc4S(=O)(=O)C4CC4)s3)(CC1)CC2 [Example 58]
60 nM		Cc1cc(Nc2ccc(-c3ncc([C@H]4CC[C@@H](NC(=O)OC(C)C)CC4)s3)c(S(=O)(=O)C3CC3)c2)n[nH]1 [Example 91-1, isopropyl cis-(4-(2-(2-(cyclopropylsulfonyl)-4-((5-methyl-1H-pyrazol-3-yl)amino)phenyl)thiazol-5-yl)cyclohexyl)carbamate]
468 nM		Cc1cc(Nc2ccc(-c3nc4c(s3)CCN(C(=O)OC(C)C)CC4)c(S(=O)(=O)C3CC3)c2)n[nH]1 [Example 108, isopropyl 2-(2-(cyclopropylsulfonyl)-4-((5-methyl-1H-pyrazol-3-yl)amino)phenyl)-7,8-dihydro-4H-thiazolo[4,5-d]aza-6(5H)-carboxylate]
200 nM		CC(C)OC(=O)N[C@H]1CC[C@H](c2ncc(-c3ccc(Oc4ccccn4)cc3S(=O)(=O)C3CC3)s2)CC1 [Example 83, isopropyl trans-(4-(5-(2-(cyclopropylsulfonyl)-4-(pyridin-2-yloxy)phenyl)thiazol-2-yl)cyclohexyl)carbamate]
125 nM		CC(C)OC(=O)Nc1ccc(-c2ncc(-c3ccc(Nc4cn(C)nn4)cc3S(=O)(=O)C3CC3)s2)cc1 [Example 59]
3930 nM		CCP(=O)(CC)c1cc(NC(=O)OC(C)C)ccc1-c1cnc([C@H]2CC[C@H](NC(=O)OC(C)C)CC2)s1 [Example 23, isopropyl trans-N-[3-diethylphosphoryl-4-[2-[4-(isopropoxycarbonylamino)cyclohexyl]thiazol-5-yl]phenyl]carbamate]
